# Structures can show the parent of a compound that is named as a salt.
# Tests used:
# [1] = test system: vertebral blood flow; assay: Activity of increasing cerebral blood flow (vertebral blood flow), intravenous administration in anesthetized dogs; type: in vivo; conditions: Canis lupus familiaris; 0.03 to 0.3 mg/kg intravenous, anesthetized mongrel dogs; calculated from the regression line; read-out: VBF-ED50 (dose which increased the cerebral blood flow by 50%)
# [2] = in vivo; conditions: mouse, oral, ddY-strain male mice, fasted 24 hours, deaths during seven days, Weil method, read-out: Acute toxicity LD50
# Description: ddY-strain male mice (body weight 18 to 22 g; five per group) were caused to fast 24 hours. Then, each of the test compounds was administered orally, and acute toxicity values (LD50) were determined.
# Each of the compounds was dissolved or suspended in a 2% tartaric acid solution containing 20% of dimethylacetamide, and orally administered to the animals. From the number of animals which died during seven days, the LD50 values were calculated by using the Weil method.
# [3] = test system: vertebral blood flow; assay: Activity of increasing cerebral blood flow (vertebral blood flow), intravenous administration in anesthetized dogs; type: in vivo; conditions: 0.3 mg/kg, injected into femoral vein, anesthetized mongrel dogs
# Description: The activity of increasing cerebral blood flow was measured by using the amount of vertebral blood flow as an index. Mongrel dogs of either sex (body weight 11 to 14 kg; four per group) were anesthetized with sodium pentobarbital (30 mg/kg, by intravenous injection), and the right vertebral artery was isolated from the surrounding tissues. A flow probe was attached to it and led to an electromagnetic flow meter (MFV-2100 made by Nihon Kohden Co., Ltd.). The amount of blood flow was periodically measured [see Meth and Find Exptl Clin Pharmacol, 3 (6), 397 (1981)]. Each of the test compounds was dissolved in a 2% tartaric acid solution containing 20% dimethylacetamide, and injected into the right femoral vein.
# Furthermore, each of the test compounds was administered in a dose of 0.3 mg/kg, and increases (%) in vertebral blood flow were determined 1, 5, 10 and 20 minutes after the administration.
# [4] = test system: vertebral blood flow; assay: Activity to increase cerebral blood flow (vertebral blood flow), intraduodenal administration in dogs; type: in vivo; conditions: 1 mg/kg intraduodenal, mongrel dogs
# Description: The activity of compound A of the invention to increase cerebral blood flow was examined by intraduodenal administration.
# Compound A was dissolved in a 2% tartaric acid solution containing 20% dimethylacetamide, and administered intraduodenally to mongrel dogs of either sex (body weight 11-18 kg, five per group) in a dose of 1 mg/kg.
# At 10, 30, 60, 120, 180 and 240 minutes after the administration, the increase (%) of vertebral blood flow was measured in the same way as in Test Example 1.
# [5] = 10 minutes after administration
# [6] = 20 minutes after administration
SMILES,ED50 [1],LD50 at 168 h [2],Increase (%) in vertebral blood flow (mean ± standard error) ([3]; 1 minute after administration),Increase (%) in vertebral blood flow (mean ± standard error) ([3]; 5 minutes after administration),"Increase (%) in vertebral blood flow (mean ± standard error) [3, 5]","Increase (%) in vertebral blood flow (mean ± standard error) [3, 6]","Increase (%) of vertebral blood flow (mean ± standard error) [4, 5]",Increase (%) of vertebral blood flow (mean ± standard error) ([4]; 30 minutes after administration),Increase (%) of vertebral blood flow (mean ± standard error) ([4]; 60 minutes after administration),Increase (%) of vertebral blood flow (mean ± standard error) ([4]; 120 minutes after administration),Increase (%) of vertebral blood flow (mean ± standard error) ([4]; 180 minutes after administration),Increase (%) of vertebral blood flow (mean ± standard error) ([4]; 240 minutes after administration)
"COc1ccc(C=CCN2CCN(C(c3ccccc3)c3ccccc3)CC2)c(OC)c1OC.Cl.Cl [B, 1-Benzhydryl-4-(2,3,4-trimethoxycinnamyl) piperazine dihydrochloride]",0.12 mg/kg,841 mg/kg,76 ± 14%,58 ± 12%,41 ± 7%,26 ± 4%,,,,,,
"COc1ccc(C=CCN2CCN(C(c3ccc(F)cc3)c3ccc(F)cc3)CC2)c(OC)c1.O=C(O)/C=C/C(=O)O [C, 1-[Bis(4-fluorophenyl)methyl]-4-(2,4-dimethoxycinnamyl)piperazine fumarate]",0.08 mg/kg,102 mg/kg,83 ± 12%,92 ± 10%,71 ± 7%,50 ± 7%,,,,,,
"C(=Cc1ccccc1)CN1CCN(C(c2ccccc2)c2ccccc2)CC1 [Cinnarizine, reference compound]",,,40 ± 10%,5 ± 4%,2 ± 2%,2 ± 4%,,,,,,
"COc1ccc(C=CCN2CCN(C(c3ccc(F)cc3)c3ccc(F)cc3)CC2)c(OC)c1OC.Cl.Cl [Compound A, 1-[Bis(4-fluorophenyl)methyl]-4-(2,3,4-trimethoxycinnamyl)piperazine dihydrochloride]",0.06 mg/kg,185 mg/kg,107 ± 17%,137 ± 39%,134 ± 40%,120 ± 38%,6.2 ± 1.8%,51.0 ± 18.6%,149.3 ± 48.0%,150.9 ± 38.2%,98.8 ± 24.2%,55.1 ± 17.2%
"COc1ccc(C=CCN2CCN(C(c3ccccc3)c3ccccc3)CC2)c(OC)c1.O=C(O)/C=C/C(=O)O [D, 1-Benzhydryl-4-(2,4-dimethoxycinnamyl) piperazine fumarate]",0.18 mg/kg,773 mg/kg,66 ± 11%,51 ± 10%,27 ± 7%,18 ± 6%,,,,,,
"Fc1ccc(C(c2ccc(F)cc2)N2CCN(CC=Cc3ccccc3)CC2)cc1 [Flunarizine dihydrochloride, reference compound]",> 0.3 mg/kg,,53 ± 20%,20 ± 12%,11 ± 7%,10 ± 6%,,,,,,

# From patent publication US4703048A, “Novel 1-benzhydryl-4-cinnamylpiperazine derivatives, and pharmaceutical compositions comprising said compounds as active ingredient for treating a cerebrovascular disease” (Kanebo Ltd., priority 1985, dated 1987)
